In data set [1] the test system is pancreatic acinar carcinoma expressing the SST-2 receptor (CA20948). In words: In vivo fluorescence imaging of rat pancreatic acinar carcinoma (CA20948). The conditions noted are these: for uptake (fluorescence) in tumor at 45 minutes: 45 minutes post injection, rats with CA20948 tumor. An excerpt: (§1) A non-invasive in vivo fluorescence imaging apparatus was employed to assess the efficacy of contrast agents developed for tumor detection in animal models. A LaserMax Inc. laser diode of nominal wavelength 780 nm and nominal power of 40 mW was used. The detector was a Princeton Instruments model RTE/CCD-1317-K/2 CCD camera with a Rodenstock 10 mm F2 lens (stock #542.032.002.20) attached. An 830 nm interference […] (CVI Laser Corp., part # F10-830-4-2) was mounted in front of the CCD input lens such that only emitted fluorescent light from the contrast agent was imaged. Typically, an image of the animal was taken pre-injection of contrast agent. This image was subsequently subtracted (pixel by pixel) from the post injection images. However, the background subtraction was […] done once the animal had been removed from the sample area and returned at a later time for images taken several hours post injection.
The imaging apparatus and the procedure used are described in Example 12. Rat pancreatic acinar carcinoma expressing the SST-2 receptor (CA20948) was induced by solid implant technique in the left flank area, and palpable masses were detected nine days post implant. The images obtained at 2 and 30 minutes post injection are shown in FIG. 7E-F. FIGS. 7E-F are images of a rat with an induced pancreatic acinar carcinoma (CA20948) expressing the SST-2 receptor imaged at two minutes (FIG. 7E) and 30 minutes (FIG. 7F) post injection.
The imaging apparatus and the procedure used are described in Example 12, except that each animal received 500 μL of a 1.0 mg/mL solution of Cytate 1 solution of 25% dimethylsulfoxide in water.
Rat pancreatic acinar carcinoma expressing the SST-2 receptor (CA20948) were induced by solid implant technique in the left flank area, and palpable masses were detected 24 days post implant. Images were obtained at various times post injection.
(§2) Cytate 1 was evaluated in the CA20948 Lewis rat model. […] At 19 hours post injection the animal was again imaged (FIG. 9B). […] As a control, the organs were imaged again (FIG. 10A) and the image was compared with that of the same tissues in the uninjected rat (FIG. 10B).

Data set [2] has as its system Pancreatic Ductal Adenocarcinoma (DSL 6A). Nature of the data set: In vivo fluorescence imaging of pancreatic ductal adenocarcinoma (DSL 6A) tumors. Further details: species or system rat.
Description: as §1
DSL 6A tumors were induced in male Lewis rats in the left flank area by the introduction of material from a solid (donor) implant, and the tumors were palpable in approximately 14 days. The animals were anesthetized with xylazine:ketamine:acepromazine, 1.5:1.5:0.5 at 0.8 mL/kg via intramuscular injection. The area of the tumor (left flank) was shaved to expose the tumor and the surrounding surface area. […]

For data set [3], the system named is Prostatic Carcinoma (Dunning R3327-H). In words: In vivo fluorescence imaging of prostatic carcinoma (R3327-H) tumors. Set-up: species or system rat.
Description: as §1
The imaging apparatus and the procedure used are described as in Example 12. Prostate tumors (Dunning R3327-H) were induced in young male Copenhagen rats in the left flank area from a solid implant. These tumors grow very slowly and palpable masses were present 4-5 months post implant. FIGS. 7C-D are images of a rat with an induced prostatic carcinoma tumor (R3327-H) imaged at two minutes (FIG. 7C) and 30 minutes (FIG. 7D) post injection.

Data set [4] in a line: Imaging of individual organs removed from CA20948 tumor-bearing rat. In kind it is in vivo. The protocol: as §2
Individual organs were removed and imaged.

Data set [5] can be described thus: Monitoring of the blood clearance profile of peptide-dye conjugates. It is filed as in vivo. The settings on record: rat ear; tail vein bolus; 830 nm after excitation at 780 nm. An excerpt:
A laser of appropriate wavelength for excitation of the dye chromophore was directed into one end of a fiber optic bundle and the other end was positioned a few millimeters from the ear of a rat. A second fiber optic bundle was also positioned near the same ear to detect the emitted fluorescent light and the other end was directed into the optics and electronics for data collection. An interference filter (IF) in the collection optics train was used to select emitted fluorescent light of the appropriate wavelength for the dye chromophore.
Sprague-Dawley or Fischer 344 rats were used in these studies. The animals were anesthetized with urethane administered via intraperitoneal injection at a dose of 1.35 g/kg body weight. After the animals had achieved the desired plane of anesthesia, a 21 gauge butterfly with 12″ tubing was placed in the lateral tail vein of each animal and flushed with heparinized saline. The animals were placed onto a heating pad and kept warm throughout the entire study. The lobe of the left ear was affixed to a glass microscope slide to reduce movement and vibration.
Incident laser light delivered from the fiber optic was centered on the affixed ear. Data acquisition was then initiated, and a background reading of fluorescence was obtained prior to administration of the test agent. For Cytates 1 or 2, the peptide-dye conjugate was administered to the animal through a bolus injection, typically 0.5 to 2.0 mL, in the lateral tail vein. This procedure was repeated with several dye-peptide conjugates in normal and tumor-bearing rats. Representative profiles as a method to monitor blood clearance of the peptide-dye conjugate in normal and tumor-bearing animals are shown in FIGS. 12 to 16. The data were analyzed using a standard sigma plot software program for a one-compartment model.

Regarding `CC1(C)C(/C=C/C=C/C=C/C=C2\N(CCCCS(=O)(=O)O)c3ccc4ccccc4c3C2(C)C)=[N+](CCCCS(=O)(=O)[O-])c2ccc3ccccc3c21` [ICG, indocyanine green, reference compound], the “dye intensity in the tumor” value is “considerably diminished and almost absent” in data set [1] (30 minutes post-ICG injection vs 2 minutes, CA20948 tumor); “considerably diminished” in data set [2] (30 minutes post-ICG injection vs 2 minutes, DSL 6A tumor, male Lewis rats, 500 μL of 0.42 mg/mL in water, tail vein); “considerably diminished” in data set [3] (30 minutes post-ICG injection vs 2 minutes, R3327-H tumor, male Copenhagen rats). Further, in data set [1], the “uptake (fluorescence) in tumor at 45 minutes” value is recorded as “mostly cleared”. Besides, the “perfusion of the agent into the tumor” value is reported as “slight but transient perfusion” in data set [1] (CA20948 (pancreatic) tumor line, absent after 30 minutes post injection); “slow perfusion of the agent over time into the tumor” in data set [2] (DSL 6/A (pancreatic) tumor line, CCD camera); “slow perfusion of the agent over time into the tumor” in data set [3] (Dunning R3327H (prostate) tumor line, CCD camera). Besides, the “non-specific localization into the tumor line” value in data set [1] (CA20948, compared to the other two tumor lines) is on record as “no non-specific localization”.
Regarding `C[C@@H](O)[C@H](NC(=O)[C@@H]1CSSC[C@H](NC(=O)[C@@H](Cc2ccccc2)NC(=O)CCN2C(=CC=CC=CC=CC3=[N+](CCC(=O)O)c4ccc5ccccc5c4C3(C)C)C(C)(C)c3c2ccc2ccccc32)C(=O)N[C@@H](Cc2ccc(O)cc2)C(=O)N[C@H](Cc2c[nH]c3ccccc23)C(=O)N[C@@H](CCCCN)C(=O)N[C@@H]([C@@H](C)O)C(=O)N1)C(=O)O` [Cytate 1, monoOctreotate-Bisethylcarboxymethylindocyanine dye], in data set [1], the “uptake (fluorescence) in tumor at 45 minutes” value is “still intense”. The “localization of dye in the tumor” value in data set [1] (90 minutes post injection, CA20948 Lewis rat model) is reported as “strong localization”. In data set [1] (19 hours post injection, CA20948 Lewis rat model), the tumor visualization result is on record as “easily observed”. Moreover, the “time of maximal uptake into the tumor” value in data set [1] (CA20948 tumor, 500 μL of 1.0 mg/mL in 25% dimethylsulfoxide in water) is on record as “about five”. In data set [1] (CA20948 tumor, post-injection), the “persistence of dye fluorescence in the tumor” value was “remained intense in the tumor for several hours”. Also, in data set [4] (removed organ imaged), the uptake in adrenals entry is given as “High uptake”, the uptake in heart entry was “significantly lower uptake”, the uptake in liver entry was “significantly lower uptake” and the uptake in pancreas result is reported as “High uptake”. In data set [4] (removed organ imaged), the uptake in spleen entry was “significantly lower uptake”. Besides, in data set [4] (removed tissue imaged), the uptake in muscle entry is “significantly lower uptake” and the “uptake in tumor tissue” value is listed as “High uptake”. In data set [5], the “blood fluorescence signal after bolus injection (rise)” value is on record as “rapidly increased to a peak value” and the “blood fluorescence signal after peak (clearance from the bloodstream)” value is “decayed as a function of time”.
Turning to `C[C@@H](O)[C@H](NC(=O)[C@@H]1CSSC[C@H](NC(=O)[C@@H](Cc2ccccc2)NC(=O)CCN2C(=CC=CC=CC=CC3=[N+](CCC(=O)N[C@H](Cc4ccccc4)C(=O)N[C@H]4CSSC[C@@H](C(=O)N[C@H](C(=O)O)[C@@H](C)O)NC(=O)[C@H]([C@@H](C)O)NC(=O)[C@H](CCCCN)NC(=O)[C@@H](Cc5c[nH]c6ccccc56)NC(=O)[C@H](Cc5ccc(O)cc5)NC4=O)c4ccc5ccccc5c4C3(C)C)C(C)(C)c3c2ccc2ccccc32)C(=O)N[C@@H](Cc2ccc(O)cc2)C(=O)N[C@H](Cc2c[nH]c3ccccc23)C(=O)N[C@@H](CCCCN)C(=O)N[C@@H]([C@@H](C)O)C(=O)N1)C(=O)O` [Cytate 2, bis Octreotate-Bisethylcarboxymethylindocyanine dye], in data set [5], the “blood fluorescence signal after bolus injection (rise)” value is on record as “rapidly increased to a peak value” and the “blood fluorescence signal after peak (clearance from the bloodstream)” value is “decayed as a function of time”.

For the origin of these results see US7566444B2, “Versatile hydrophilic dyes” (Mallinckrodt Inc., priority 2000, dated 2009).
